Measured values reported in patent publication US9987294B2, “Mitochondria-targeted anti-tumor agents” (University of Massachusetts, priority 2007, dated 2018).
“Also recorded” adds a separate entry of the source. Where a name gives a salt, the structure may show the parent alone. Where no end group is shown, it is not given here. [ ]: non-standard residue; d: D form.

How the values were obtained:
[1] = system: normal human fibroblast cell types (WS-1, HGF, HFF); test: Cell viability by MTT, normal human fibroblast cell types; conditions: concentrations comparable to those killing tumor cells
Procedure: Changes in protein expression in the various experiments of siRNA targeting were assessed by Western blotting. For analysis of TRAP-1-directed cytoprotection, primary nontransformed human fibroblasts HFF and WS-1 were transfected with control pcDNA3 or TRAP-1 cDNA by lipofectamine for 24 hours, exposed to increasing concentrations (0-1 μM) of the cell death stimulus staurosporine (STS), and analyzed for cell viability after additional 24 hours incubation by MTT. For analysis of apoptosis, p53+/+ or p53−/−HCT116 cells were treated with control or ANT-GA (100 μM), and analyzed for DEVDase activity (CaspaTag) and propidium iodide staining by simultaneous multiparametric flow cytometry, as described (Dohi et al., J. Clin. Invest. 114(8):1117-27, (2004); Plescia et al., Cancer Cell, 7:457-468, (2005)).

tumor mitochondria = test: Cytochrome c release from drug-treated isolated tumor mitochondria; type: biochemical; conditions: 3 hours (FIG. 16D)
Procedure: Tumor cell types were treated with controls or the various Hsp90 antagonists, and cytosolic extracts were harvested at increasing time intervals between 5-30 minutes and analyzed by Western blotting. For experiments in a cell-free system, purified mitochondria (20 μg) were suspended in 500 μl of SB buffer (0.2 M sucrose, 10 mM Tris-MOPS, pH 7.4, 5 mM succinate, 1 mM sodium phosphate, 10 μM EGTA-Tris, and 2 μM rotenone). […] At the end of each incubation reaction, mitochondria and supernatants were separated by centrifugation at 6,000×g for 10 minutes, and analyzed by Western blotting.
(§1) The fluorescence intensity after treatment with 2 mM CaCl2 corresponded to a fully depolarized state. Alternatively, H460 cells were labeled with the fluorescent dye JC-1 (Molecular Probes), and analyzed for changes in red/green (F1-2/F1-1) fluorescence ratio after treatment with the various agents, by multiparametric flow cytometry. Cytochrome c content in pellets or supernatants of drug-treated isolated mitochondria was determined by Western blotting.

[2] = system: isolated tumor mitochondria; test: Inner membrane potential of TMRM-loaded tumor mitochondria; type: biochemical
Procedure: as §1

[3] = system: lung adenocarcinoma H460 cells; test: Cell viability by MTT, H460; type: cell-based, human; conditions: 3 hour exposure
Procedure: (§2) Modulation of cell viability was determined by MTT (Kang et al., “Regulation of tumor cell mitochondrial homeostasis by an organelle-specific Hsp90 chaperone network,” Cell, 131:257-270 (2007)). For determination of apoptosis, cells were analyzed for caspase activity (DEVDase activity) and plasma membrane integrity (propidium iodide) using CaspaTag (Intergen, Burlington, Mass.), by multiparametric flow cytometry (Kang et al., “Regulation of tumor cell mitochondrial homeostasis by an organelle-specific Hsp90 chaperone network,” Cell, 131:257-270 (2007)).

[4] = system: H460 lung adenocarcinoma xenograft tumors; test: Xenograft tumor growth, H460; type: in vivo, mice; conditions: i.p.; G4 and 17-AAG 2-3 mg/kg twice daily, G1 30-50 mg/Kg daily, TPP 10 mg/Kg daily
Procedure: To create the models used in this example, HL60 (10×10^6) or H460 (4×10^6) cells suspended in sterile PBS (200 μl) were injected subcutaneously into both flanks of 10 week-old CB17 SCID/beige (Taconic Farms) immunocompromised female mice. Alternatively, MDA-MB-231 cells (5×10^6) suspended in 200 μl of 50% Matrigel (BD Biosciences) were used for subcutaneous injection in CB17 SCID/beige mice. When superficial tumors reached volumes of 100-150 mm^3, animals were randomized in two groups (2 tumors/mouse, 3 animals/group), and treated with vehicle (DMSO) or Gamitrinib dissolved in 20% Cremophor EL (Sigma) in PBS by intraperitoneal (i.p.) injection. Gamitrinib-G4 was used as sterile i.p. injections with the following schedules: HL60 xenografts, 2 mg/Kg twice daily; H460 xenografts, 2 mg/kg twice daily for d 0, 2.5 mg/kg twice daily for d 1, 3.0 mg/kg twice daily for the duration of treatment; MDA-MB-231 xenografts, 2 mg/Kg twice daily for d 0-2, 2.5 mg/Kg twice daily for d 3-5, and 3 mg/Kg twice daily throughout the rest of the treatment. 17-AAG was dissolved in 20% Cremophor EL and used as systemic i.p. injections with the same dose-escalating regimen as Gamitrinib-G4 in H460 xenograft studies. Gamitrinib-G1 was used with following schedules: 30 mg/Kg daily (d 0-2), and 50 mg/Kg daily for the rest of treatment. Gamitrinib-TPP was used as i.p. injections at 10 mg/Kg daily throughout the duration of the experiment. Tumor measurements were taken daily with a caliper, and tumor volume was calculated with the formula ([length in millimeters]×[width in millimeters]^2)/2. Mice in the various treatment groups were weighed at the beginning and at the end of each experiment.

[5] = system: breast adenocarcinoma SKBr3 cells; test: Metabolic activity by MTT, SKBr3; type: cell-based; conditions: 10 μM; by 48 hours and throughout a 96-hours interval
Procedure: as §2

TRAP-1 and Hsp90 = test: Fractionation of Raji mitochondrial extracts over Shepherdin-Sepharose or scrambled peptidomimetic-Sepharose; type: binding, human; conditions: coupled to Sepharose beads, Western blotting
[6] = system: Ras-transformed NIH3T3 mitochondria; test: Mitochondrial membrane potential of TMRM-loaded isolated mitochondria; type: biochemical
Procedure: Raji cells were treated with Shepherdin or control scrambled peptidomimetic (100 μM) or 17-AAG (5 μM), loaded with the mitochondrial membrane potential-sensitive fluorescent dye JC-1, and analyzed for changes in green/red fluorescence ratio by flow cytometry. For experiments in a cell-free system, purified mitochondria isolated from primary normal cells, various tumor cells types, or normal mouse organs were suspended in SB buffer. […] For these experiments, TMRM-loaded mitochondria in SB buffer were allowed to reach stable fluorescence, which was set as fully polarized state (maximum membrane potential). The fluorescence intensity after treatment with 2 mM CaCl2 was set as minimum membrane potential (fully depolarized state). Changes in fluorescence intensity after each treatment were plotted as a ratio between maximum and minimum membrane potential.

CC[C@H](C)[C@H](NC(=O)[C@H](CCCCN)NC(=O)[C@@H](NC(=O)[C@H](CCC(N)=O)NC(=O)[C@@H](N)CCCNC(=N)N)[C@@H](C)CC)C(=O)N[C@@H](Cc1c[nH]c2ccccc12)C(=O)N[C@@H](Cc1ccccc1)C(=O)N[C@@H](CCC(N)=O)C(=O)N[C@@H](CC(N)=O)C(=O)N[C@@H](CCCNC(=N)N)C(=O)N[C@@H](CCCNC(=N)N)C(=O)N[C@@H](CCSC)C(=O)N[C@@H](CCCCN)C(=O)N[C@@H](Cc1c[nH]c2ccccc12)C(=O)N[C@@H](CCCCN)C(=O)N[C@@H](CCCCN)C(=O)N[C@@H](CSC1CC(=O)N(CCCC(=O)NCCCNC2=C3C[C@@H](C)C[C@H](OC)[C@H](O)[C@@H](C)/C=C(\C)[C@H](OC(N)=O)[C@@H](OC)/C=C\C=C(/C)C(=O)NC(=CC2=O)C3=O)C1=O)C(N)=O (some centres unmarked) [ANT-GA]
viability of normal human fibroblast cell types [1]: none of the compounds affected the viability of various normal human fibroblast cell types

COc1c(C)cnc(Cn2cnc3c(Cl)nc(N)nc32)c1C [BIIB021]
cytochrome c release from mitochondria (tumor mitochondria): had no effect on cytochrome c release

CO[C@H]1/C=C\C=C(/C)C(=O)NC2=CC(=O)C(NCCN(C)C)=C(C[C@@H](C)C[C@H](OC)[C@H](O)[C@@H](C)/C=C(\C)[C@@H]1OC(N)=O)C2=O [DMAG, 17-(dimethylaminoethylamino)-17-demethoxygeldanamycin]
mitochondrial inner membrane potential [2]: did not affect mitochondrial membrane potential

COC1=C2C[C@@H](C)C[C@H](OC)[C@H](O)[C@@H](C)/C=C(\C)[C@H](OC(N)=O)[C@@H](OC)/C=C\C=C(/C)C(=O)NC(=CC1=O)C2=O [GA, geldanamycin]
viability of normal human fibroblast cell types [1]: none of the compounds affected the viability of various normal human fibroblast cell types

CO[C@H]1/C=C\C=C(/C)C(=O)NC2=CC(=O)C(NCCCNC(=O)CCCN3C(=O)CC(SC[C@H]4CCN5CC[C@H](CO[Si](c6ccccc6)(c6ccccc6)C(C)(C)C)N=C5N4)C3=O)=C(C[C@@H](C)C[C@H](OC)[C@H](O)[C@@H](C)/C=C(\C)[C@@H]1OC(N)=O)C2=O (stereo partly drawn) [Gamitrinib-G1, (4E,6Z,8S,9S,10E,12S,13R,14S,16R)-19-(3-(4-(3-(((2R,8R)-8-((tert-butyldiphenylsilyloxy)methyl)-2,3,4,6,7,8-hexahydro-1H-pyrimido[1,2-a]pyrimidin-2-yl)methylthio)-2,5-dioxopyrrolidin-1-yl)butanamido)propylamino)-13-hydroxy-8,14-dimethoxy-4,10,12,16-tetramethyl-3,20,22-trioxo-2-azabicyclo[16.3.1]docosa-1(21),4,6,10,18-pentaen-9-yl carbamate, hexafluorophosphate salt]
cell viability [3]: had no effect | tumor growth [4]: also inhibited lung cancer growth in vivo

CO[C@H]1/C=C\C=C(/C)C(=O)NC2=CC(=O)C(NCCCNC(=O)CCCN3C(=O)CC(SC[C@H]4CCN5CC[C@H](CSC[C@H]6CCN7CC[C@H](CO[Si](c8ccccc8)(c8ccccc8)C(C)(C)C)N=C7N6)N=C5N4)C3=O)=C(C[C@@H](C)C[C@H](OC)[C@H](O)[C@@H](C)/C=C(\C)[C@@H]1OC(N)=O)C2=O (some centres unmarked) [Gamitrinib-G2]
cell viability [3]: had intermediate activity

CO[C@H]1/C=C\C=C(/C)C(=O)NC2=CC(=O)C(NCCCNC(=O)CCCN3C(=O)CC(SC[C@H]4CCN5CC[C@H](CSC[C@H]6CCN7CC[C@H](CSC[C@H]8CCN9CC[C@H](CO[Si](c%10ccccc%10)(c%10ccccc%10)C(C)(C)C)N=C9N8)N=C7N6)N=C5N4)C3=O)=C(C[C@@H](C)C[C@H](OC)[C@H](O)[C@@H](C)/C=C(\C)[C@@H]1OC(N)=O)C2=O.F[P-](F)(F)(F)(F)F.F[P-](F)(F)(F)(F)F.F[P-](F)(F)(F)(F)F (some centres unmarked) [Gamitrinib-G3]
cell viability [3]: complete loss of cell viability | IC50 ([3]; read-out: IC50, loss of cell viability): ~500 nM

CO[C@H]1/C=C\C=C(/C)C(=O)NC2=CC(=O)C(NCCCCCC[P+](c3ccccc3)(c3ccccc3)c3ccccc3)=C(C[C@@H](C)C[C@H](OC)[C@H](O)[C@@H](C)/C=C(\C)[C@@H]1OC(N)=O)C2=O [Gamitrinib-TPP, (4E,6Z,8S,9S,10E,12S,13R,14S,16R)-19-(6-(triphenylphosphonio)hexylamino)-13-hydroxy-8,14-dimethoxy-4,10,12,16-tetramethyl-3,20,22-trioxo-2-azabicyclo[16.3.1]docosa-1(21),4,6,10,18-pentaen-9-yl carbamate hexafluorophosphate]
mitochondrial inner membrane potential [2]: promptly depolarized tumor mitochondria | cell viability [3]: had intermediate activity | metabolic activity [5]: comparably reduced metabolic activity | tumor growth [4]: also inhibited lung cancer growth in vivo

C=CCNc1c(O)cc2c(O)c1C[C@@H](C)C[C@H](OC)[C@H](O)[C@@H](C)/C=C(\C)[C@H](OC(N)=O)[C@@H](OC)/C=C\C=C(/C)C(=O)N2 [IPI-504]
cytochrome c release from mitochondria (tumor mitochondria): had no effect on cytochrome c release

CCNC(=O)c1noc(-c2cc(C(C)C)c(O)cc2O)c1-c1ccc(CN2CCOCC2)cc1 [NVP-AUY922]
cytochrome c release from mitochondria (tumor mitochondria): had no effect on cytochrome c release

Sheph: Shepherdin lacking the Antennapedia cell-penetrating sequence ([dL][dF][dA][dC]G[dS][dS][dH][dK])
association of Hsp90 and TRAP-1 with immobilized peptidomimetic (TRAP-1 and Hsp90): specific elution of both TRAP-1 and Hsp90; also recorded: Hsp90 and TRAP-1 are bound by Shepherdin-Sepharose | membrane potential of mitochondria [6]: induces loss of mitochondrial membrane potential in transformed cells
